Data reported in publication PMC6979384, “Characterization of the plant homeodomain (PHD) reader family for their histone tail interactions” (Epigenetics & Chromatin, 2020).

Columns and labels:
Test in all cases: Histone peptide microarray
Assay type in all cases: binding, human
PHF13 = settings: GST-tagged PHF13; for Array Heatmap signal, PHF13: sheet "Array Heatmap", arrays performed twice, total replicate number n = 4
Outline: (§1)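 Binding read as mean relative signal from 4 replicates; microarray held 293 synthetic histone peptides with single or combinatorial PTMs. Each GST-tagged PHD reader was applied at 0.5 μM using the optimized Petell protocol.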

CHD5 (PCC) = settings: for Array Heatmap signal, CHD5 (PCC): sheet "Array Heatmap", GST-tagged CHD5 (PCC), arrays performed twice, total replicate number n = 4
Outline: as §1

ING5 = settings: GST-tagged ING5; for Array Heatmap signal, ING5: sheet "Array Heatmap", arrays performed twice, total replicate number n = 4
Outline: as §1

PHF2 = settings: GST-tagged PHF2; for Array Heatmap signal, PHF2: sheet "Array Heatmap", arrays performed twice, total replicate number n = 4
Outline: as §1

ING4 = settings: GST-tagged ING4; for Array Heatmap signal, ING4: sheet "Array Heatmap", arrays performed twice, total replicate number n = 4
Outline: as §1

CHD4 (PPCC) = settings: for Array Heatmap signal, CHD4 (PPCC): sheet "Array Heatmap", GST-tagged CHD4 (PPCC), arrays performed twice, total replicate number n = 4
Outline: as §1

ING3 = settings: GST-tagged ING3; for Array Heatmap signal, ING3: sheet "Array Heatmap", arrays performed twice, total replicate number n = 4
Outline: as §1

CHD5 (PPCC) = settings: for Array Heatmap signal, CHD5 (PPCC): sheet "Array Heatmap", GST-tagged CHD5 (PPCC), arrays performed twice, total replicate number n = 4
Outline: as §1

BPTF (PB) = settings: for Array Heatmap signal, BPTF (PB): sheet "Array Heatmap", GST-tagged BPTF (PB), arrays performed twice, total replicate number n = 4
Outline: as §1

ING2 = settings: GST-tagged ING2; for Array Heatmap signal, ING2: sheet "Array Heatmap", arrays performed twice, total replicate number n = 4
Outline: as §1

PHRF1 (RP) = settings: GST-tagged PHRF1 (RP); for Array Heatmap signal, PHRF1 (RP): sheet "Array Heatmap", arrays performed twice, total replicate number n = 4
Outline: as §1

MLL5 = settings: GST-tagged MLL5; for Array Heatmap signal, MLL5: sheet "Array Heatmap", arrays performed twice, total replicate number n = 4
Outline: as §1

SP140L = settings: GST-tagged SP140L; for Array Heatmap signal, SP140L: sheet "Array Heatmap", arrays performed twice, total replicate number n = 4
Outline: as §1

ING1 = settings: GST-tagged ING1; for Array Heatmap signal, ING1: sheet "Array Heatmap", arrays performed twice, total replicate number n = 4
Outline: as §1

TRIM66 (PB) = settings: for Array Heatmap signal, TRIM66 (PB): sheet "Array Heatmap", GST-tagged TRIM66 (PB), arrays performed twice, total replicate number n = 4
Outline: as §1

PHF21A = settings: GST-tagged PHF21A; for Array Heatmap signal, PHF21A: sheet "Array Heatmap", arrays performed twice, total replicate number n = 4
Outline: as §1

KDM5A (1) = settings: GST-tagged KDM5A (1); for Array Heatmap signal, KDM5A (1): sheet "Array Heatmap", arrays performed twice, total replicate number n = 4
Outline: as §1

KDM5B (3) = settings: GST-tagged KDM5B (3); for Array Heatmap signal, KDM5B (3): sheet "Array Heatmap", arrays performed twice, total replicate number n = 4
Outline: as §1

DIDO1 = settings: GST-tagged DIDO1; for Array Heatmap signal, DIDO1: sheet "Array Heatmap", arrays performed twice, total replicate number n = 4
Outline: as §1

KDM5B (1) = settings: GST-tagged KDM5B (1); for Array Heatmap signal, KDM5B (1): sheet "Array Heatmap", arrays performed twice, total replicate number n = 4
Outline: as §1

PHF8 = settings: GST-tagged PHF8; for Array Heatmap signal, PHF8: sheet "Array Heatmap", arrays performed twice, total replicate number n = 4
Outline: as §1

PHF23 = settings: GST-tagged PHF23; for Array Heatmap signal, PHF23: sheet "Array Heatmap", arrays performed twice, total replicate number n = 4
Outline: as §1

RAG2 = settings: GST-tagged RAG2; for Array Heatmap signal, RAG2: sheet "Array Heatmap", arrays performed twice, total replicate number n = 4
Outline: as §1

DPF2 (PPC2W2) = settings: for Array Heatmap signal, DPF2 (PPC2W2): sheet "Array Heatmap", GST-tagged DPF2 (PPC2W2), arrays performed twice, total replicate number n = 4
Outline: as §1

TAF3 = settings: GST-tagged TAF3; for Array Heatmap signal, TAF3: sheet "Array Heatmap", arrays performed twice, total replicate number n = 4
Outline: as §1

MORC3 (CW) = settings: for Array Heatmap signal, MORC3 (CW): sheet "Array Heatmap", GST-tagged MORC3 (CW), arrays performed twice, total replicate number n = 4
Outline: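 A peptide microarray holding 293 synthetic histone peptides with individual or combinatorial modifications was probed with each GST-PHD protein at 0.5 μM. Values represent mean intensity (±SD) from four replicates.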

KDM7A = settings: GST-tagged KDM7A; for Array Heatmap signal, KDM7A: sheet "Array Heatmap", arrays performed twice, total replicate number n = 4
Outline: as §1

AIRE (PP) = settings: GST-tagged AIRE (PP); for Array Heatmap signal, AIRE (PP): sheet "Array Heatmap", arrays performed twice, total replicate number n = 4
Outline: as §1

KDM5A (3) = settings: GST-tagged KDM5A (3); for Array Heatmap signal, KDM5A (3): sheet "Array Heatmap", arrays performed twice, total replicate number n = 4
Outline: as §1

KDM4C (TTP) = settings: for Array Heatmap signal, KDM4C (TTP): sheet "Array Heatmap", GST-tagged KDM4C (TTP), arrays performed twice, total replicate number n = 4
Outline: as §1

BAZ2B = settings: GST-tagged BAZ2B; for Array Heatmap signal, BAZ2B: sheet "Array Heatmap", arrays performed twice, total replicate number n = 4
Outline: as §1

[1] = sheet Array Heatmap, each array performed twice, total n = 4

## H3K4ac + K9me1 + K14ac + K18ac: H3 1-20
PHF13
  Array Heatmap signal, PHF13: 0.5879
CHD5 (PCC)
  Array Heatmap signal, CHD5 (PCC): 0.8198
ING5
  Array Heatmap signal, ING5: 0.3469
PHF2
  Array Heatmap signal, PHF2: 0.368
ING4
  Array Heatmap signal, ING4: 0.4584
CHD4 (PPCC)
  Array Heatmap signal, CHD4 (PPCC): 0.5629
ING3
  Array Heatmap signal, ING3: 0.4265
CHD5 (PPCC)
  Array Heatmap signal, CHD5 (PPCC): 0.5431
BPTF (PB)
  Array Heatmap signal, BPTF (PB): 0.3424
ING2
  Array Heatmap signal, ING2: 0.5869
PHRF1 (RP)
  Array Heatmap signal, PHRF1 (RP): 0.3692
MLL5
  Array Heatmap signal, MLL5: 0.5142
SP140L
  Array Heatmap signal, SP140L: 0.3469
ING1
  Array Heatmap signal, ING1: 0.4555
TRIM66 (PB)
  Array Heatmap signal, TRIM66 (PB): 0.5413
PHF21A
  Array Heatmap signal, PHF21A: 0.4512
KDM5A (1)
  Array Heatmap signal, KDM5A (1): 0.4805
KDM5B (3)
  Array Heatmap signal, KDM5B (3): 0.497
DIDO1
  Array Heatmap signal, DIDO1: 0.5412
KDM5B (1)
  Array Heatmap signal, KDM5B (1): 0.6293
PHF8
  Array Heatmap signal, PHF8: 0.3261
PHF23
  Array Heatmap signal, PHF23: 0.4792
RAG2
  Array Heatmap signal, RAG2: 0.2267
DPF2 (PPC2W2)
  Array Heatmap signal, DPF2 (PPC2W2): 0.6154
TAF3
  Array Heatmap signal, TAF3: 0.2619
MORC3 (CW)
  Array Heatmap signal, MORC3 (CW): 0.3311
KDM7A
  Array Heatmap signal, KDM7A: 0.4836
AIRE (PP)
  Array Heatmap signal, AIRE (PP): 0.5251
KDM5A (3)
  Array Heatmap signal, KDM5A (3): 0.3935
KDM4C (TTP)
  Array Heatmap signal, KDM4C (TTP): 0.5174
BAZ2B
  Array Heatmap signal, BAZ2B: 0.5783

## H3K4ac + K9me2 + K14ac + K18ac: H3 1-20
PHF13
  Array Heatmap signal, PHF13: 0.6376
CHD5 (PCC)
  Array Heatmap signal, CHD5 (PCC): 0.8289
ING5
  Array Heatmap signal, ING5: 0.3863
PHF2
  Array Heatmap signal, PHF2: 0.5092
ING4
  Array Heatmap signal, ING4: 0.4857
CHD4 (PPCC)
  Array Heatmap signal, CHD4 (PPCC): 0.5924
ING3
  Array Heatmap signal, ING3: 0.5023
CHD5 (PPCC)
  Array Heatmap signal, CHD5 (PPCC): 0.5961
BPTF (PB)
  Array Heatmap signal, BPTF (PB): 0.3687
ING2
  Array Heatmap signal, ING2: 0.6022
PHRF1 (RP)
  Array Heatmap signal, PHRF1 (RP): 0.5426
MLL5
  Array Heatmap signal, MLL5: 0.5581
SP140L
  Array Heatmap signal, SP140L: 0.3786
ING1
  Array Heatmap signal, ING1: 0.5602
TRIM66 (PB)
  Array Heatmap signal, TRIM66 (PB): 0.6234
PHF21A
  Array Heatmap signal, PHF21A: 0.517
KDM5A (1)
  Array Heatmap signal, KDM5A (1): 0.4994
KDM5B (3)
  Array Heatmap signal, KDM5B (3): 0.5157
DIDO1
  Array Heatmap signal, DIDO1: 0.6996
KDM5B (1)
  Array Heatmap signal, KDM5B (1): 0.6474
PHF8
  Array Heatmap signal, PHF8: 0.3959
PHF23
  Array Heatmap signal, PHF23: 0.5641
RAG2
  Array Heatmap signal, RAG2: 0.2604
DPF2 (PPC2W2)
  Array Heatmap signal, DPF2 (PPC2W2): 0.7053
TAF3
  Array Heatmap signal, TAF3: 0.2754
MORC3 (CW)
  Array Heatmap signal, MORC3 (CW): 0.4166
KDM7A
  Array Heatmap signal, KDM7A: 0.3693
AIRE (PP)
  Array Heatmap signal, AIRE (PP): 0.5959
KDM5A (3)
  Array Heatmap signal, KDM5A (3): 0.4792
KDM4C (TTP)
  Array Heatmap signal, KDM4C (TTP): 0.5332
BAZ2B
  Array Heatmap signal, BAZ2B: 0.5255

## H3K4ac + K14ac: H3 1-20
PHF13; [1]
  Array Heatmap signal (histone peptide microarray): 0.6284
CHD5 (PCC); GST-tagged CHD5 (PCC = PHD + Dual Chromodomain), sheet Array Heatmap, each array performed twice, total n = 4
  Array Heatmap signal (histone peptide microarray): 0.8648
ING5; [1]
  Array Heatmap signal (histone peptide microarray): 0.3447
PHF2; [1]
  Array Heatmap signal (histone peptide microarray): 0.5218
ING4; [1]
  Array Heatmap signal (histone peptide microarray): 0.4509
CHD4 (PPCC); GST-tagged CHD4 (PPCC = Dual PHD + Dual Chromodomain), sheet Array Heatmap, each array performed twice, total n = 4
  Array Heatmap signal (histone peptide microarray): 0.5746
ING3; [1]
  Array Heatmap signal (histone peptide microarray): 0.5142
CHD5 (PPCC); GST-tagged CHD5 (PPCC = Dual PHD + Dual Chromodomain), sheet Array Heatmap, each array performed twice, total n = 4
  Array Heatmap signal (histone peptide microarray): 0.5648
BPTF (PB); GST-tagged BPTF (PB = PHD + Bromodomain), sheet Array Heatmap, each array performed twice, total n = 4
  Array Heatmap signal (histone peptide microarray): 0.4507
ING2; [1]
  Array Heatmap signal (histone peptide microarray): 0.6101
PHRF1 (RP); [1]
  Array Heatmap signal (histone peptide microarray): 0.5779
MLL5; [1]
  Array Heatmap signal (histone peptide microarray): 0.5464
SP140L; [1]
  Array Heatmap signal (histone peptide microarray): 0.3353
ING1; [1]
  Array Heatmap signal (histone peptide microarray): 0.5034
TRIM66 (PB); GST-tagged TRIM66 (PB = PHD + Bromodomain), sheet Array Heatmap, each array performed twice, total n = 4
  Array Heatmap signal (histone peptide microarray): 0.6492
PHF21A; [1]
  Array Heatmap signal (histone peptide microarray): 0.4619
KDM5A (1); [1]
  Array Heatmap signal (histone peptide microarray): 0.4998
KDM5B (3); [1]
  Array Heatmap signal (histone peptide microarray): 0.5625
DIDO1; [1]
  Array Heatmap signal (histone peptide microarray): 0.6468
KDM5B (1); [1]
  Array Heatmap signal (histone peptide microarray): 0.6896
PHF8; [1]
  Array Heatmap signal (histone peptide microarray): 0.3555
PHF23; [1]
  Array Heatmap signal (histone peptide microarray): 0.5688
RAG2; [1]
  Array Heatmap signal (histone peptide microarray): 0.2771
DPF2 (PPC2W2); GST-tagged DPF2 (PPC2W2 = Dual PHD + C2W2-type Zn-finger), sheet Array Heatmap, each array performed twice, total n = 4
  Array Heatmap signal (histone peptide microarray): 0.6791
TAF3; [1]
  Array Heatmap signal (histone peptide microarray): 0.2918
MORC3 (CW); GST-tagged MORC3 (CW = CW-type Zn-finger), sheet Array Heatmap, each array performed twice, total n = 4
  Array Heatmap signal (histone peptide microarray): 0.433
KDM7A; [1]
  Array Heatmap signal (histone peptide microarray): 0.4116
AIRE (PP); [1]
  Array Heatmap signal (histone peptide microarray): 0.4945
KDM5A (3); [1]
  Array Heatmap signal (histone peptide microarray): 0.4971
KDM4C (TTP); GST-tagged KDM4C (TTP = Tandem Tudor domain + PHD), sheet Array Heatmap, each array performed twice, total n = 4
  Array Heatmap signal (histone peptide microarray): 0.505
BAZ2B; [1]
  Array Heatmap signal (histone peptide microarray): 0.8376
